Residues, ends and D or L forms follow the SMILES beside them. *: point of attachment. Bz = O=C(c1ccccc1)*
Each compound was assayed against T1, Secreted cathepsin L 1 (Fasciola hepatica, UniProt Q7JNQ9) (assay: Cathepsin L Enzyme Assay).
T1 sequence (Q7JNQ9 whole entry): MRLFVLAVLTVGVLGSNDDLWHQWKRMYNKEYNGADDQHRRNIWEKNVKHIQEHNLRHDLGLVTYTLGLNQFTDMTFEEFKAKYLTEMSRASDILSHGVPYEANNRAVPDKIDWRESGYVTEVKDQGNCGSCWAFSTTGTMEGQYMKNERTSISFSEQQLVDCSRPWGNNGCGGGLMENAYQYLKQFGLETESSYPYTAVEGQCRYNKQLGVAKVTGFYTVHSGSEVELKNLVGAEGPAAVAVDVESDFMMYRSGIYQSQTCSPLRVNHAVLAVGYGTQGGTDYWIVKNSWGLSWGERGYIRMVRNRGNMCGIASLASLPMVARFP
Description: The protease was activated by the addition of dithiothreitol, ethylenediaminetetraacetic acid (EDTA), and sodium acetate followed by incubation at 37°C for 2 h. Proteinase activity was measured fluorometrically using Z-Phe-Arg-NHMec as substrate. The substrate was stored as a 1 mM stock solution in dimethyl sulfoxide (DMSO). Assays were carried out using a final concentration of 10 μM substrate in 0.1 M sodium acetate containing 0.1 M dithiothreitol and […]. The enzyme and inhibitor were incubated together for 15 min at 37°C, at which stage the substrate was added. The mixture was incubated at 37°C for 30 min. The reaction was stopped by the addition of 150 μL of a 10% acetic acid solution. The amount of 7-amino-4-methylcoumarin (-NHMec) released was measured using a PerkinElmer fluorescence spectrophotometer with excitation set at 370 nm and emission at 440 nm.

Compound	IC50
CC(C)C[C@H](NC(=O)c1c(F)ccc(F)c1F)C(=O)NCC#N [N-2,3,6-trifluorobenzoyl-L-leucine-glycine nitrile (28)]	6 µM
CC(C)C[C@H](NC(=O)c1cccc(C(F)(F)F)c1)C(=O)NCC#N [N-3-trifluoromethylbenzoyl-L-leucine-glycine nitrile (35)]	9.1 µM
CC(C)C[C@H](NC(=O)c1cc(F)ccc1F)C(=O)NCC#N [N-2,5-difluorobenzoyl-L-leucine-glycine nitrile (24)]	3.1 µM
CC(C)C[C@H](NC(=O)c1c(F)cccc1F)C(=O)NCC#N [N-2,6-difluorobenzoyl-L-leucine-glycine nitrile (25)]	3.7 µM
CC(C)C[C@H](NC(=O)c1ccc(C(F)(F)F)cc1)C(=O)NCC#N [N-4-trifluoromethylbenzoyl-L-leucine-glycine nitrile (36)]	3.2 µM
CC(C)C[C@H](NC(=O)c1c(F)c(F)c(F)c(F)c1F)C(=O)NCC#N [N-2,3,4,5,6-pentafluorobenzoyl-L-leucine-glycine nitrile (33)]	4.4 µM
C[C@H](NC(=O)c1ccccc1F)C(=O)NCC#N [N-2-fluorobenzoyl-L-alanine-glycine nitrile (15)]	87.6 µM
CC(C)C[C@H](NC(=O)c1ccc(F)cc1F)C(=O)NCC#N [N-2,4-difluorobenzoyl-L-leucine-glycine nitrile (23)]	5.5 µM
CC(C)C[C@H](NC(=O)c1ccccc1)C(=O)NCC(=O)O [N-benzoyl-L-leucine-glycine (37)] (Bz-Leu-Gly-OH)	10 µM
CC(C)C[C@H](NC(=O)c1cc(F)c(F)cc1F)C(=O)NCC#N [N-2,4,5-trifluorobenzoyl-L-leucine-glycine nitrile]	4.5 µM
CC(C)C[C@H](NC(=O)c1cc(F)c(F)c(F)c1F)C(=O)NCC#N [N-2,3,4,5-tetrafluorobenzoyl-L-leucine-glycine nitrile (32)]	3.4 µM
CC(C)C[C@H](NC(=O)c1cc(F)c(F)c(F)c1)C(=O)NCC#N [N-3,4,5-trifluorobenzoyl-L-leucine-glycine nitrile]	3.4 µM
CC(C)C[C@H](NC(=O)c1cc(F)cc(F)c1)C(=O)NCC#N [N-3,5-difluorobenzoyl-L-leucine-glycine nitrile (27)]	3 µM
C[C@H](NC(=O)c1c(F)c(F)c(F)c(F)c1F)C(=O)NCC#N [N-pentafluorobenzoyl-L-alanine-glycine nitrile (16)]	68.3 µM
CC(C)C[C@H](NC(=O)c1ccccc1C(F)(F)F)C(=O)NCC#N [N-2-trifluoromethylbenzoyl-L-leucine-glycine nitrile (34)]	4.1 µM
CC(C)C[C@H](NC(=O)c1ccc(F)c(F)c1F)C(=O)NCC#N [N-2,3,4-trifluorobenzoyl-L-leucine-glycine nitrile (29)]	4.1 µM
CC(C)C[C@H](NC(=O)c1ccc(F)c(F)c1)C(=O)NCC#N [N-3,4-difluorobenzoyl-L-leucine-glycine nitrile (26)]	3.1 µM
C[C@H](NC(=O)c1c(F)c(F)c(F)c(F)c1F)C(=O)NCCC#N [N-pentafluorobenzoyl-L-alanine-β-alanine nitrile (20)]	> 100 µM
C[C@H](NC(=O)c1ccccc1F)C(=O)NCCC#N [N-2-fluorobenzoyl-L-alanine-β-alanine nitrile (19)]	> 100 µM
